pIC50: −log10 of the molar value. Counter-ions that a name gives are not always drawn. Like-named read-outs stand apart in the source and are kept apart here. Non-standard residues stand in square brackets, D forms with d. Residues, ends and D or L forms follow the SMILES beside them. ξ: configuration not given here. *: point of attachment. Phe(4-NH2) = Nc1ccc(C[C@H](N)C(=O)O)cc1; 2Nal = N[C@@H](Cc1ccc2ccccc2c1)C(=O)O; Hydrocinnamoyl = O=C(CCc1ccccc1)*; NH(CH2)3Ph = c1ccc(CCCN*)cc1; 2Pyrimidinyl = c1cnc(*)nc1; ξR = N=C(N)NCCCC(N)C(=O)O; Octanoyl = CCCCCCCC(=O)*; Orn = NCCC[C@H](N)C(=O)O; Piperidide = C1CCN(*)CC1; Cbz = O=C(OCc1ccccc1)*; Boc = CC(C)(C)OC(=O)*; Bn = c1ccc(C*)cc1; NHBu = CCCCN*

The source of these data is US20100087466A1, “NOVEL SMALL MOLECULE DNAK INHIBITORS” (priority 2008, published 2010).

One test deals with E. coli (ATCC 25922). Briefly: Antibacterial activity against E. coli (MIC). It is filed as cell-based. Conditions: for MIC: Escherichia coli, ATCC25922.
For the next test, the target named is DnaK (Escherichia coli, UniProt P0A6Y8). Briefly: DnaK Inhibition Assay (DnaK induced refolding of denatured firefly luciferase). In kind it is biochemical, E. coli. Conditions: DnaK 200 nM, DnaJ 100 nM, GrpE 400 nM; for pIC50: read-out: DnaK IC50; for IC50: read-out: DnaK IC50(μg/ml) (converted). As to the method: Inhibition of the bacterial DnaK chaperone system may be evaluated by inhibition of the DnaK induced refolding of denatured firefly luciferase. More specifically, firefly luciferase is denatured by treatment with 8N guanidium hydrochloride at room temperature for 30 mins and then 5° C. for 1 h. After dilution into cold MOPS buffer augmented with ATP (2.5 mM) and DTT (12.5 mM) and standing for a further hour, the denatured luciferase is refolded by addition to a mixture of chaperone proteins in MOPS buffer, resulting in a reaction mixture containing denatured luciferase (24 nM), DnaK (200 nM), DnaJ (100 nM) and GrpE (400 nM). The extent of refolding is determined by addition of a luciferase substrate and measurement of the emitted chemoluminescence. In this format the substrate is the commercially available luciferase “Steady-Glo” reagent from Promega, Inc. Inhibition of DnaK induced refolding is determined by premixing the chaperone proteins with the test agent at concentrations of test agent ranging from 1-100 μg/mL. The extent of refolding is compared to that with no test reagent, and the IC50 is estimated by fitting the data to a standard sigmoidal dose-response curve.
Chain of DnaK (P0A6Y8 2-638): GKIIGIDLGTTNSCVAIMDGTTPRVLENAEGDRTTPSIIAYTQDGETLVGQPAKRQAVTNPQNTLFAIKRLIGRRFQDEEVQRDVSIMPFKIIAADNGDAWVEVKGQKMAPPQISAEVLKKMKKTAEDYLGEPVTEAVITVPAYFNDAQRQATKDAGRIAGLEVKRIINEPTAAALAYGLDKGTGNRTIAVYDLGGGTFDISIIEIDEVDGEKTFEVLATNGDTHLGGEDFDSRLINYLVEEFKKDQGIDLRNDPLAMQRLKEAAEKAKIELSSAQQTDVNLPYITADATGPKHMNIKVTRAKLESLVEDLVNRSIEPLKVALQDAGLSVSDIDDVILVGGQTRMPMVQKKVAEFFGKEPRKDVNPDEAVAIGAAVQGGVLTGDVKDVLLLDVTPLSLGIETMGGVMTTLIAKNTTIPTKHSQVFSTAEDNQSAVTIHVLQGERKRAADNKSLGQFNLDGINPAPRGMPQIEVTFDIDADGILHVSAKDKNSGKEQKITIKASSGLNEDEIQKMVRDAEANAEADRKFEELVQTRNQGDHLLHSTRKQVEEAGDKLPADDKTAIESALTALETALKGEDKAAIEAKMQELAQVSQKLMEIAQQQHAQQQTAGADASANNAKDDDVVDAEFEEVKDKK
Inhibition of the bacterial DnaK chaperone system was evaluated by inhibition of the DnaK induced refolding of denatured firefly luciferase. Firefly luciferase was denatured by treatment with 8N guanidium hydrochloride at room temperature for 30 mins and then 5° C. for 1 h. After dilution into cold MOPS buffer augmented with ATP (2.5 mM) and DTT (12.5 mM) and standing for a further hour, the denatured luciferase was refolded by addition to a mixture of chaperone proteins in MOPS buffer, resulting in a reaction mixture containing denatured luciferase (24 nM), DnaK (200 nM), DnaJ (100 nM) and GrpE (400 nM). The extent of refolding was determined by addition of a luciferase substrate and measurement of the emitted chemoluminescence. In this format the substrate is the commercially available luciferase “Steady-Glo” reagent from Promega, Inc. Inhibition of DnaK induced refolding was determined by premixing the chaperone proteins with the test agent at concentrations of test agent ranging from 1-100 μg/mL. The extent of refolding was compared to that with no test reagent, and the IC50 was estimated by fitting the data to a standard sigmoidal dose-response curve.
IC50 is defined as the concentration in μM at which 50% inhibition of DnaK induced refolding of denatured firefly luciferase occurs.

For the compound “3-(Octylamido)-nicotinoyl-Tyr(Bzl)-Leu-Pro-Arg-OMe trifluoroacetate [Structure 31]”, the “E. coli (ATCC 25922) MIC” value with E. coli (ATCC 25922) (ATCC 25922) was 32 µg/mL. Besides, at DnaK, the “DnaK IC50(μg/ml)” value was determined as 10 µg/mL and the pIC50 was 5.00.
Turning to `CC(=O)N[C@@H](Cc1ccc(O)cc1)C(=O)N[C@@H](CC(C)C)C(=O)N1CCC[C@H]1C(=O)N[C@@H](CCCNC(=N)N)C(=O)N1CCCCC1` [Structure 4, Ac-Tyr-Leu-Pro-Arg-N(CH2)5.TFA] (Ac-YLPR-Piperidide), at DnaK, the pIC50 was 5.52 and the IC50 was 6.09 µM.
As for `CC(=O)N[C@@H](Cc1ccc(OCc2ccccc2)cc1)C(=O)N[C@@H](CC(C)C)C(=O)N1CCC[C@H]1C(=O)NCCCCN` [Structure 5, Ac-Tyr(Bzl)-Leu-Pro-NH(CH2)4NH2.TFA], on DnaK, the pIC50 was 4.35 and the IC50 is 106 µM.
In the case of `COC(=O)[C@@H]1CCCN1C(=O)[C@H](CC(C)C)NC(=O)[C@H](Cc1ccc(NC(=O)OCc2ccccc2)cc1)NC(C)=O` [Structure 6, Ac-4-(NHCbz)Phe-Leu-Pro-OMe] (Ac-[Phe(4-NH2)](Cbz)-Leu-Pro-OMe), on DnaK, the pIC50 is 3.83 and the IC50 was 420 µM.
As for `CC(=O)N[C@@H](Cc1ccc(NC(=O)OCc2ccccc2)cc1)C(=O)N[C@@H](CC(C)C)C(=O)N1CCC[C@H]1C(=O)O` [Structure 7, Ac-4-(NHCbz)Phe-Leu-Pro-OH] (Ac-[Phe(4-NH2)](Cbz)-Leu-Pro-OH), at DnaK, the pIC50 was 4.14 and the IC50 was 224 µM.
For `COC(=O)[C@@H]1CCCN1C(=O)[C@H](CC(C)C)NC(=O)[C@H](Cc1ccc2ccccc2c1)NC(C)=O` [Structure 8, Ac-2-Nal-Leu-Pro-OMe] (Ac-[2Nal]-Leu-Pro-OMe), in that order: 4.52 and 127 µM.
As for `CC(=O)N[C@@H](Cc1ccc2ccccc2c1)C(=O)N[C@@H](CC(C)C)C(=O)N1CCC[C@H]1C(=O)O` [Structure 9] (Ac-[2Nal]-Leu-Pro-OH), at DnaK, the pIC50 is 4.21 and the IC50 is 282 µM.
As for `CC(C)C[C@H](NC(=O)[C@H](Cc1ccc(O)cc1)NC(=O)OC(C)(C)C)C(=O)N1CCC[C@H]1C(=O)N[C@@H](CCCNC(=N)N)C(=O)N1CCC[C@H]1C(=O)NCCCc1ccccc1` [Structure 12, Boc-Tyr-Leu-Pro-Arg-Pro-NH(CH2)3Ph] (Boc-YLPRP-{NH(CH2)3Ph}), at DnaK, the pIC50 is 4.96 and the IC50 was 12.8 µM.
Consider `CC(C)C[C@H](NC(=O)CCc1ccccc1)C(=O)N1CCC[C@H]1C(=O)N[C@@H](CCCNC(=N)N)C(=O)N1CCCCC1` [Structure 13, Ph(CH2)2C(O)-Leu-Pro-Arg-N(CH2)5] (Hydrocinnamoyl-Leu-Pro-Arg-Piperidide), for which, on DnaK, the negative-log IC50 (pIC50) was 4.92 and the IC50 was 29.1 µM.
For `CC(=O)N[C@@H](Cc1ccc(OCc2ccccc2)cc1)C(=O)N[C@@H](CC(C)C)C(=O)N1CCC[C@H]1C(=O)N[C@@H](CCCNC(=N)N)C(=O)N1CCCCC1` [Structure 14] (Ac-Y(Bn)LPR-Piperidide), in that order: 4.60 and 37.5 µM.
For the compound `CCCCNC(=O)[C@@H]1CCCN1C(=O)[C@H](CCCNC(=N)N)NC(=O)[C@@H]1CCCN1C(=O)[C@H](CC(C)C)NC(=O)[C@H](Cc1ccc(O)cc1)NC(C)=O` [Structure 15, Ac-Tyr-Leu-Pro-Arg-Pro-NHBu.TFA] (Ac-YLPRP-NHBu), on DnaK, the pIC50 is 4.62 and the IC50 is 39.1 µM.
On to `CC(=O)N[C@@H](Cc1ccc(O)cc1)C(=O)N[C@@H](CC(C)C)C(=O)N1CCC[C@H]1C(=O)N[C@@H](CCCNC(=N)N)C(=O)N1CCC[C@H]1C(=O)NCCCc1ccccc1` [Structure 16, Ac-Tyr-Leu-Pro-Arg-Pro-NH(CH2)3Ph.TFA] (Ac-YLPRP-{NH(CH2)3Ph}), for which, at DnaK, the pIC50 was 4.62 and the IC50 was 32.3 µM.
The matching figures for `CC(=O)N[C@@H](Cc1ccc(OCc2ccccc2)cc1)C(=O)N[C@@H](CC(C)C)C(=O)N1CCC[C@H]1C(=O)N[C@@H](CCCNC(=O)OC(C)(C)C)C(=O)N1CCC[C@H]1C(=O)NCCCc1ccccc1` [Structure 17, Ac-Tyr(Bzl)-Leu-Pro-Orn(Boc)-Pro-NH(CH2)3Ph] (Ac-Y(Bn)LP[Orn](Boc)P-{NH(CH2)3Ph}): 4.68 and 20 µM.
For `CC(=O)N[C@@H](Cc1ccc(O)cc1)C(=O)N[C@@H](CC(C)C)C(=O)N1CCC[C@H]1C(=O)N[C@@H](CCCNC(=O)OC(C)(C)C)C(=O)N1CCC[C@H]1C(=O)NCCCc1ccccc1` [Structure 18, Ac-Tyr-Leu-Pro-Orn(Boc)-Pro-NH(CH2)3Ph] (Ac-YLP[Orn](Boc)P-{NH(CH2)3Ph}), in that order: 4.27 and 63.8 µM.
The matching figures for `CC(=O)N[C@@H](Cc1ccc(O)cc1)C(=O)N[C@@H](CC(C)C)C(=O)N1CCC[C@H]1C(=O)N[C@@H](CCCN)C(=O)N1CCC[C@H]1C(=O)NCCCc1ccccc1` [Structure 19, Ac-Tyr-Leu-Pro-Orn-Pro-NH(CH2)3Ph] (Ac-YLP[Orn]P-{NH(CH2)3Ph}): 4.40 and 60.4 µM.
In the case of `CC(=O)N[C@@H](Cc1ccc(OCc2ccccc2)cc1)C(=O)N[C@@H](CC(C)C)C(=O)N1CCC[C@H]1C(=O)N[C@@H](CCCN)C(=O)N1CCC[C@H]1C(=O)NCCCc1ccccc1` [Structure 20, Ac-Tyr(Bzl)-Leu-Pro-Orn-Pro-NH(CH2)3Ph] (Ac-Y(Bn)LP[Orn]P-{NH(CH2)3Ph}), on DnaK, the pIC50 is 4.80 and the IC50 was 20 µM.
On to `CC(=O)N[C@@H](Cc1ccc(OCc2ccccc2)cc1)C(=O)N[C@@H](CC(C)C)C(=O)N1CCC[C@H]1C(=O)N[C@@H](CCCNc1ncccn1)C(=O)N1CCC[C@H]1C(=O)NCCCc1ccccc1` [Structure 21, Ac-Tyr(Bzl)-Leu-Pro-Orn(2-pyrimidine)-Pro-NH(CH2)3Ph] (Ac-Y(Bn)LP[Orn](2Pyrimidinyl)P-{NH(CH2)3Ph}), for which, on DnaK, the pIC50 is 4.66 and the IC50 is 22.6 µM.
As to `CCC(C)[C@H](NC(=O)[C@H](Cc1ccc(O)cc1)NC(C)=O)C(=O)N[C@@H](CO)C(=O)OC` (stereo partly drawn) [Structure 23, Ac-Tyr-Ile-Ser-OMe], at DnaK, the negative-log IC50 (pIC50) was 4.00 and the IC50 is 530 µM.
Regarding `CCC(C)[C@H](NC(=O)[C@H](Cc1ccc(O)cc1)NC(C)=O)C(=O)N[C@@H](CO)C(=O)O` (stereo partly drawn) [Structure 24, Ac-Tyr-Ile-Ser-OH], at DnaK, the pIC50 is 3.62 and the IC50 is 309 µM.
In the test with E. coli (ATCC 25922), `CCCCCCCC(=O)N[C@H](Cc1ccc(OCc2ccccc2)cc1)C(=O)N[C@@H](CC(C)C)C(=O)N1CCC[C@H]1C(=O)N[C@H](CCCNC(=N)N)C(=O)OC` [Structure 25, Octanoyl-(D)-Tyr(Bzl)-Leu-Pro-Arg-OMe trifluoroacetate] (Octanoyl-[dY](Bn)LP[dR]-OMe) showed an MIC of 128 µg/mL. On DnaK, the pIC50 is 4.70 and the IC50 was 23.1 µM.
In turn, `CCCCCCCC(=O)N[C@@H](Cc1ccc(OCc2ccccc2)cc1)C(=O)N[C@@H](CC(C)C)C(=O)N1CCC[C@H]1C(=O)N[C@H](CCCNC(=N)N)C(=O)OC` [Structure 26, Octanoyl-Tyr(Bzl)-Leu-Pro-Arg-OMe trifluoroacetate] (Octanoyl-Y(Bn)LP[dR]-OMe) gave an MIC in the test with E. coli (ATCC 25922) of 32 µg/mL. Besides, at DnaK, the pIC50 was 4.52 and the IC50 is 34.7 µM.
Regarding `CCCCCCCC(=O)N[C@@H](Cc1ccc(O)cc1)C(=O)N[C@@H](CC(C)C)C(=O)N1CCC[C@H]1C(=O)N[C@H](CCCNC(=N)N)C(=O)N1CCCCC1` [Structure 27, Octanoyl-Tyr-Leu-Pro-Arg-N(CH2)5 trifluoroacetate] (Octanoyl-YLP[dR]-Piperidide), at DnaK, the pIC50 was 5.10 and the IC50 was 9.45 µM.
In the case of `CCCCCCCC(=O)N[C@@H](Cc1ccc(OCc2ccccc2)cc1)C(=O)N[C@@H](CC(C)C)C(=O)N1CCC[C@H]1C(=O)N[C@H](CCCNC(=N)N)C(=O)N1CCCCC1` [Structure 28, Octanoyl-Tyr(Bzl)-Leu-Pro-Arg-N(CH2)5 trifluoroacetate] (Octanoyl-Y(Bn)LP[dR]-Piperidide), inhibition of growth in the test on E. coli (ATCC 25922) (MIC) required 32 µg/mL. Moreover, on DnaK, the pIC50 is 4.89 and the IC50 is 14.4 µM.
In turn, `CC(=O)N[C@@H](Cc1ccc(O)cc1)C(=O)N[C@@H](CC(C)C)C(=O)N1CCC[C@H]1C(=O)NC(CCCNC(=N)N)C(N)=O` (some centres unmarked) [Structure 34] (Ac-YLP[ξR]-NH2) returned an MIC in the test with E. coli (ATCC 25922) of over 256 µg/mL.
In the case of “Ac-YLPRP-NH2 [Structure 1, Ac-Tyr-Leu-pro-Arg-Pro-NH2]”, at DnaK, the pIC50 was 4.24 and the IC50 is 67.1 µM.
